Results reported in US7550485B2, “Substituted N-heterocycle derivatives and methods of their use” (Wyeth, priority 2003, dated 2009).
Counter-ions that a name gives are not always drawn.

Target: T1, hNET (Homo sapiens, UniProt P23975)
T1 construct: expressed in transfected cells
Experiment: Norepinephrine (NE) uptake assay in MDCK-Net6 cells stably transfected with human hNET
Assay type: cell-based
Conditions: [3H]NE uptake; for inhibition at 1 µM: MDCK-Net6, 1 μM test compound; for EC50: test range 1 to 10,000 nM
How it was run: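 MDCK-Net6 cells preincubated 20 min at 37 °C with compound (1 to 10,000 nM) in HEPES buffer pH 7.4 with pargyline and ascorbate, then 5 min [3H]NE uptake (120 nM final). Lysed cells counted by scintillation; 1 μM desipramine defined minimum uptake; EC50 from logistic fit of pooled data.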

T1 sequence (P23975 whole entry): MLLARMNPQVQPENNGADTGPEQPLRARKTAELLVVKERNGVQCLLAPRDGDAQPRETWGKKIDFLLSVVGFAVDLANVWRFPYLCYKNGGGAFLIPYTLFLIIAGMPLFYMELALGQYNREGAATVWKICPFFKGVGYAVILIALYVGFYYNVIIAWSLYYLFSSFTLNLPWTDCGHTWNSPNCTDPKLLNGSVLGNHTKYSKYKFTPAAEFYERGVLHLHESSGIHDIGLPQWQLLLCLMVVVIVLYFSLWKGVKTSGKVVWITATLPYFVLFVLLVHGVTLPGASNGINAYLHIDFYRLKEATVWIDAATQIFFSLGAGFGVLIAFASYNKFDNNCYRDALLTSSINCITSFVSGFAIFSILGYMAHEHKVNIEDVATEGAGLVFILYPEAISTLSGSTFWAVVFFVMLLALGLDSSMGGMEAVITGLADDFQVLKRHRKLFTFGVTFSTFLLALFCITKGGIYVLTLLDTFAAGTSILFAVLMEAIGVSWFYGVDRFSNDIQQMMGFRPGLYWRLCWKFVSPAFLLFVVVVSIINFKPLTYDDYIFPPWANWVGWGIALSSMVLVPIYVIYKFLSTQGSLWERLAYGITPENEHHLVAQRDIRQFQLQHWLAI

| SMILES | inhibition at 1 µM [%] | EC50 [nM] |
| --- | --- | --- |
| COc1ccc(C(CN2CCC(N)CC2)C2(O)CCCCC2)cc1Br (centres unmarked) [Example 25, 1-[2-(4-aminopiperidin-1-yl)-1-(3-bromo-4-methoxyphenyl)ethyl]cyclohexanol dihydrochloride] | 85 | 200 |
| CN(C)[C@@H]1CCCN(CC(c2ccc(OCc3ccccc3)c(Cl)c2)C2(O)CCCCC2)C1 (stereo partly drawn) [Example 194, 1-{1-[4-(benzyloxy)-3-chlorophenyl]-2-[(3R)-3-(dimethylamino)piperidin-1-yl]ethyl}cyclohexanol dihydrochloride] | 81.1 | – |
| N[C@H]1CCN(CC(c2ccc(OCc3ccccc3)cc2)C2(O)CCCCC2)C1 (stereo partly drawn) [Example 213, 1-{2-[(3S)-3-aminopyrrolidin-1-yl]-1-[4 (benzyloxy)phenyl]ethyl}cyclohexanol dihydrochloride] | 84.5 | – |
| CNC1CCN(CC(c2cccc(Cl)c2)C2CCCCCC2)CC1 (centres unmarked) [Example 236, 1-[2-(3-chlorophenyl)-2-cycloheptylethyl]-N-methylpiperidin-4-amine dihydrochloride] | 49.7 | – |
| CN(C)[C@H]1CCN(CC(c2ccc3ccccc3c2)C2(O)CCCCC2)C1 (stereo partly drawn) [Example 205, 1-[2-[(3S)-3-(dimethylamino)pyrrolidin-1-yl]-1-(2-naphthyl)ethyl]cyclohexanol dihydrochloride] | 39.5 | – |
| CN[C@H]1CCN(CC(c2ccc(OCc3ccccc3)c(Cl)c2)C2(O)CCCCC2)C1 (stereo partly drawn) [Example 209, 1-{1-[4-(benzyloxy)-3-chlorophenyl]-2-[(3S)-3-(methylamino)pyrrolidin-1-yl]ethyl}cyclohexanol dihydrochloride] | 98.5 | – |
| CN(C)[C@H]1CCN(CC(c2ccc(OCc3ccccc3)cc2)C2(O)CCCCC2)C1 (stereo partly drawn) [Example 214, 1-{1-[4-(benzyloxy)phenyl]-2-[(3S)-3-(dimethylamino)pyrrolidin-1-yl]ethyl}cyclohexanol dihydrochloride] | 65 | – |
| OC1(C(CN2CCC(N3CCCC3)CC2)c2cccc(Cl)c2)CCCCC1 (centres unmarked) [Example 3, 1-[1-(3-chlorophenyl)-2-(4-pyrrolidin-1-ylpiperidin-1-yl)ethyl]cyclohexanol dihydrochloride] | 100 | 53 |
| OC1(C(CN2CCC(N3CCCC3)CC2)c2cccc(Br)c2)CCCCC1 (centres unmarked) [Example 7, 1-[1-(3-bromophenyl)-2-(4-pyrrolidin-1-ylpiperidin-1-yl)ethyl]cyclohexanol dihydrochloride] | 96 | 70 |

Further lines, results first:

| inhibition at 1 µM [%] | EC50 [nM] | SMILES |
| --- | --- | --- |
| 3 | – | NC1CCN(CC(c2cccc(Cl)c2)C2(O)CCC3CCCCC3C2)CC1 (centres unmarked) [Example 327, 2-[2-(4-aminopiperidin-1-yl-1-(3-chlorophenyl)ethyl]decahydronaphthalen-2-oldihydrochloride] |
| – | 85 | N[C@H]1CCN(C[C@@H](c2cccc(Cl)c2)C2(O)CCCCC2)C1 [Example 388, 1-[(1 R)-2-[(3S)-3-aminopyrrolidin-1-yl]-1-(3-chlorophenyl)ethyl]cyclohexanol dihydrochloride] |
| 91.1 | – | OC1(C(CN2CCC(N3CCCCC3)CC2)c2ccc(OC(F)(F)F)cc2)CCCCC1 (centres unmarked) [Example 284, 1-{2-(1,4′-bipiperidin-1′-yl)-1-[4-(trifluoromethoxy)phenyl]ethyl}cyclohexanol dihydrochloride] |
| 2 | – | COC1CCN(CC(c2ccc(OCc3ccccc3)c(Cl)c2)C2(O)CCCCC2)CC1 (centres unmarked) [Example 242, 1-[1-[4-(benzyloxy)-3-chlorophenyl]-2-(4-methoxypiperidin-1-yl)ethyl]cyclohexanol hydrochloride] |
| 19 | – | CN[C@@H]1CCN(CC(c2cccc3ccccc23)C2(O)CCCCC2)C1 (stereo partly drawn) [Example 379, 1-[2-[(3R)-3-(methylamino)pyrrolidin-1-yl]-1-(1-naphthyl)ethyl]cyclohexanol dihydrochloride] |
| 79 | – | COc1ccc(C(CN2CCC(N3CCCCC3)CC2)C2(O)CCCCC2)cc1Cl (centres unmarked) [Example 458, 1-[2-(1,4′-bipiperidin-1′-yl)-1-(3-chloro-4-methoxyphenyl)ethyl]cyclohexanol dihydrochloride] |
| 67 | 320 | COc1ccc2cc([C@@H](CN3CCC(N4CCCCC4)CC3)C3(O)CCCCC3)ccc2c1 (single isomer, unassigned) [Example 353, dihydrochloride] |
